According to patent publication US8440660B2 (Santen Pharmaceutical Co., Ltd., priority 2006, dated 2013):
Counter-ions that a name gives are not always drawn.

Each compound was assayed against T1, Glucocorticoid Receptor (GR) (Homo sapiens, UniProt P04150) (assay: GR receptor competitor assay by fluorescence polarization (Invitrogen GR competitor assay kit, cat No. P2816)). Settings: 20 μM test compound solution, 10 μL per well plus 5 μL 4×GS1 and 5 μL 4×GR solution; recombinant human GR; 2 to 4 hours at room temperature; a ratio of 100% or more is indicated by 100%; read-out: GR Binding ratio (%).
T1 construct: purchased Invitrogen P2816
T1 sequence (P04150 1-777): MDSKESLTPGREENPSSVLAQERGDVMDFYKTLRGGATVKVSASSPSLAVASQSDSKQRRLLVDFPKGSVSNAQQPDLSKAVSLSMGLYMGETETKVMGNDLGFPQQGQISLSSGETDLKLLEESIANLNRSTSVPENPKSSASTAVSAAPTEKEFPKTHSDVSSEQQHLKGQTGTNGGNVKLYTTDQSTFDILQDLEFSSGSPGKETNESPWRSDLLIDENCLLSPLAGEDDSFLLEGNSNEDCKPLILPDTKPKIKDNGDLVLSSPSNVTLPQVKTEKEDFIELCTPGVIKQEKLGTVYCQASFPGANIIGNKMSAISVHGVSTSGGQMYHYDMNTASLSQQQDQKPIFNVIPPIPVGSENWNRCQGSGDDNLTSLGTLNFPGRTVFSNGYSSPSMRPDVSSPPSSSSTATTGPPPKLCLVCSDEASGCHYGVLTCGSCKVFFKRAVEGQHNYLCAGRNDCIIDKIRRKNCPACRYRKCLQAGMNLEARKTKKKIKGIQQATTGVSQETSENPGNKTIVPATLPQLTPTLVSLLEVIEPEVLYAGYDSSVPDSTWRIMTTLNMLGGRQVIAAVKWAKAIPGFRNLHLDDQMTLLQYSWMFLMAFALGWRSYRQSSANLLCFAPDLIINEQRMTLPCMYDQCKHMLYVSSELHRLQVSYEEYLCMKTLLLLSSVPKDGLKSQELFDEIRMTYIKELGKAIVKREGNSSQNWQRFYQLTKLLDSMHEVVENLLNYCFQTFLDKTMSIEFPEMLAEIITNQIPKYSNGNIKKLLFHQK
Protocol: A detailed explanation of this matter will be described in the section of “Pharmacological Test” in Examples described below. In order to find the usefulness of the present compound as a pharmaceutical, a glucocorticoid receptor competitor assay was carried out by a fluorescence polarization method by using a glucocorticoid receptor competitor assay kit (manufactured by Invitrogen, cat No P2816) to study the glucocorticoid receptor binding activity of the present compound.
1. Evaluation Test for Binding Activity to Glucocorticoid Receptor (Hereinafter Referred to as “GR”)
In order to evaluate a binding activity to GR, a receptor competitor assay was carried out by a fluorescence polarization method. In the assay, a GR competitor assay kit (manufactured by Invitrogen, cat No. P2816) was used, and a procedure was carried out according to the protocol attached to the kit. Hereinafter, the specific method will be described.
(Preparation of Reagents)
GR screening buffer: A buffer containing 10 mM potassium phosphate (pH 7.4), 20 mM sodium molybdate (Na2MoO4), 0.1 mM ethylene diamine tetraacetic acid (EDTA), 5 mM dithiothreitol (DTT), 0.1 mM stabilizing peptide and 2% dimethylsulfoxide was prepared.
4×GS1 solution: Fluormone™ GS1, which is a fluorescent glucocorticoid ligand, was diluted with GR screening buffer, whereby a 4 nM solution was prepared.
4×GR solution: Recombinant human GR was diluted with GR screening buffer, whereby a 16 nM solution was prepared.
(Preparation of Test Compound Solution)
After a test compound was dissolved in dimethylsulfoxide, the resulting solution was diluted with GR screening buffer, whereby a 20 μM test compound solution was prepared.
(Test Method and Measurement Method)
1) The test compound solution was added in an amount of 10 μL into each well of a 384-well plate, and then, 4×GS1 solution and 4×GR solution were added in an amount of 5 μL into each well, respectively.
2) The plate was incubated in a dark place at room temperature for 2 to 4 hours.
3) By using a multimode plate reader, Analyst™ HT (manufactured by LJL Biosystems), fluorescence polarization of each well was measured. As the blank, a well containing GR screening buffer in place of the test compound and 4×GS1 solution was used.
4) The same procedure as that in the above 1) to 3) was carried out except that GR screening buffer was used in place of the test compound solution, and the obtained result was taken as the negative control.
5) The same procedure as that in the above 1) to 3) was carried out except that 2 mM dexamethasone was used in place of the test compound solution, and the obtained result was taken as the positive control.
(Calculation Equation of GR Binding Ratio)
A GR binding ratio (%) was calculated from the following equation. GR binding ratio (%)=100×[1−(fluorescence polarization of test compound solution−fluorescence polarization of positive control solution)/(fluorescence polarization of negative control solution−fluorescence polarization of positive control solution)] (Test Results and Discussion)

In order of falling inhibition at 10 µM:
1. COc1cc(OC(=O)c2cncnc2)ccc1-c1ccc2c(c1COc1cc(F)ccc1C)C(C)=CC(C)(C)N2 [Compound 1-78, 5-(5-Fluoro-2-methylphenoxymethyl)-6-[2-methoxy-4-(pyrimidin-5-ylcarbonyloxy)phenyl]-2,2,4-trimethyl-1,2-dihydroquinoline]  100%
2. COc1cc(OC(=O)c2cccnc2)ccc1-c1ccc2c(c1COc1cc([N+](=O)[O-])ccc1C)C(C)=CC(C)(C)N2 [Compound 1-94, 6-[2-Methoxy-4-(pyridin-3-ylcarbonyloxy)phenyl]-5-(2-methyl-5-nitrophenoxymethyl)-2,2,4-trimethyl-1,2-dihydroquinoline]  100%
3. COc1ccc([N+](=O)[O-])cc1OCc1c(-c2ccc(OC(=O)c3ccccc3Cl)cc2OC)ccc2c1C(C)=CC(C)(C)N2 [Compound 1-98, 6-[4-(2-Chlorobenzoyloxy)-2-methoxyphenyl]-5-(2-methoxy-5-nitrophenoxymethyl)-2,2,4-trimethyl-1,2-dihydroquinoline]  100%
4. COc1ccc([N+](=O)[O-])cc1OCc1c(-c2ccc(OC(=O)c3ccccc3OC)cc2OC)ccc2c1C(C)=CC(C)(C)N2 [Compound 1-102, 6-[2-Methoxy-4-(2-methoxybenzoyloxy)phenyl]-5-(2-methoxy-5-nitrophenoxymethyl)-2,2,4-trimethyl-1,2-dihydroquinoline]  100%
5. COc1cc(OC(=O)c2ccoc2)ccc1-c1ccc2c(c1COc1cc([N+](=O)[O-])ccc1C)C(C)=CC(C)(C)N2 [Compound 1-121, 6-[4-(Furan-3-ylcarbonyloxy)-2-methoxyphenyl]-5-(2-methyl-5-nitrophenoxymethyl)-2,2,4-trimethyl-1,2-dihydroquinoline]  100%
6. COc1cc(OC(=O)c2cccnc2C)ccc1-c1ccc2c(c1COc1cc([N+](=O)[O-])ccc1C)C(C)=CC(C)(C)N2 [Compound 1-122, 6-[2-Methoxy-4-(2-methylpyridin-3-ylcarbonyloxy)phenyl]-5-(2-methyl-5-nitrophenoxymethyl)-2,2,4-trimethyl-1,2-dihydroquinoline]  100%
7. COc1cc(OC(=O)c2cccnc2OC)ccc1-c1ccc2c(c1COc1cc(F)ccc1C)C(C)=CC(C)(C)N2 [Compound 1-125, 5-(5-Fluoro-2-methylphenoxymethyl)-6-[2-methoxy-4-(2-methoxypyridin-3-ylcarbonyloxy)phenyl]-2,2,4-trimethyl-1,2-dihydroquinoline]  100%
8. COc1cc(OC(=O)CN)ccc1-c1ccc2c(c1COc1cc(F)ccc1C)C(C)=CC(C)(C)N2 [Compound 3-1, 6-(4-Aminoacetoxy-2-methoxyphenyl)-5-(5-fluoro-2-methylphenoxymethyl)-2,2,4-trimethyl-1,2-dihydroquinoline monohydrochloride]  100%
9. CCCS(=O)(=O)Oc1ccc(-c2ccc3c(c2COc2cc(F)ccc2C)C(C)=CC(C)(C)N3)c(OC)c1 [Compound 4-11, 5-(5-Fluoro-2-methylphenoxymethyl)-6-(2-methoxy-4-propylsulfonyloxyphenyl)-2,2,4-trimethyl-1,2-dihydroquinoline]  100%
10. COc1ccc([N+](=O)[O-])cc1OCc1c(-c2ccc(OC(=O)c3cccnc3C)cc2OC)ccc2c1C(C)=CC(C)(C)N2 [Compound 1-101, 6-[2-Methoxy-4-(2-methylpyridin-3-ylcarbonyloxy)phenyl]-5-(2-methoxy-5-nitrophenoxymethyl)-2,2,4-trimethyl-1,2-dihydroquinoline]  99%
11. CCCS(=O)(=O)Oc1ccc(-c2ccc3c(c2COc2cc([N+](=O)[O-])ccc2OC)C(C)=CC(C)(C)N3)c(OC)c1 [Compound 4-18, 5-(2-Methoxy-5-nitrophenoxymethyl)-6-(2-methoxy-4-propylsulfonyloxyphenyl)-2,2,4-trimethyl-1,2-dihydroquinoline]  99%
12. COc1ccc([N+](=O)[O-])cc1OCc1c(-c2ccc(OC(=O)c3ccsc3)cc2OC)ccc2c1C(C)=CC(C)(C)N2 [Compound 1-115, 5-(2-Methoxy-5-nitrophenoxymethyl)-6-[2-methoxy-4-(thiophen-3-ylcarbonyloxy)phenyl]-2,2,4-trimethyl-1,2-dihydroquinoline]  97%
13. COc1cc(OC(=O)c2ccncc2F)ccc1-c1ccc2c(c1COc1cc(F)ccc1C)C(C)=CC(C)(C)N2 [Compound 1-91, 5-(5-Fluoro-2-methylphenoxymethyl)-6-[4-(3-fluoropyridin-4-ylcarbonyloxy)-2-methoxyphenyl]-2,2,4-trimethyl-1,2-dihydroquinoline]  96%
14. COc1cc(OC(=O)c2ccnc(Cl)c2)ccc1-c1ccc2c(c1COc1cc(F)ccc1C)C(C)=CC(C)(C)N2 [Compound 1-90, 6-[4-(2-Chloropyridin-4-ylcarbonyloxy)-2-methoxyphenyl]-5-(5-fluoro-2-methylphenoxymethyl)-2,2,4-trimethyl-1,2-dihydroquinoline]  95%
15. COc1cc(OC(=O)c2ccco2)ccc1-c1ccc2c(c1COc1cc([N+](=O)[O-])ccc1C)C(C)=CC(C)(C)N2 [Compound 1-95, 6-[4-(Furan-2-ylcarbonyloxy)-2-methoxyphenyl]-5-(2-methyl-5-nitrophenoxymethyl)-2,2,4-trimethyl-1,2-dihydroquinoline]  93%
16. COc1ccccc1C(=O)Oc1ccc(-c2ccc3c(c2COc2cc([N+](=O)[O-])ccc2C)C(C)=CC(C)(C)N3)c(OC)c1 [Compound 1-93, 6-[2-Methoxy-4-(2-methoxybenzoyloxy)phenyl]-5-(2-methyl-5-nitrophenoxymethyl)-2,2,4-trimethyl-1,2-dihydroquinoline]  92%
17. CCS(=O)(=O)Oc1ccc(-c2ccc3c(c2COc2cc(F)ccc2C)C(C)=CC(C)(C)N3)c(OC)c1 [Compound 4-12, 6-(4-Ethylsulfonyloxy-2-methoxyphenyl)-5-(5-fluoro-2-methylphenoxymethyl)-2,2,4-trimethyl-1,2-dihydroquinoline]  92%
18. COc1cc(OC(=O)c2ccc([N+](=O)[O-])o2)ccc1-c1ccc2c(c1COc1cc(F)ccc1C)C(C)=CC(C)(C)N2 [Compound 1-86, 5-(5-Fluoro-2-methylphenoxymethyl)-6-[2-methoxy-4-(5-nitrofuran-2-ylcarbonyloxy)phenyl]-2,2,4-trimethyl-1,2-dihydroquinoline]  91%
19. CCCCS(=O)(=O)Oc1ccc(-c2ccc3c(c2COc2cc(F)ccc2C)C(C)=CC(C)(C)N3)c(OC)c1 [Compound 4-14, 6-(4-Butylsulfonyloxy-2-methoxyphenyl)-5-(5-fluoro-2-methylphenoxymethyl)-2,2,4-trimethyl-1,2-dihydroquinoline]  90%
20. COc1cc(OS(=O)(=O)C(C)C)ccc1-c1ccc2c(c1COc1cc(F)ccc1C)C(C)=CC(C)(C)N2 [Compound 4-13, 5-(5-Fluoro-2-methylphenoxymethyl)-6-(4-isopropylsulfonyloxy-2-methoxyphenyl)-2,2,4-trimethyl-1,2-dihydroquinoline]  89%
